Results taken from publication PMC7482066, “Unstable Mechanisms of Resistance to Inhibitors of Escherichia coli Lipoprotein Signal Peptidase” (mBio, 2020).

Legend:
[1] = system: lspA-overexpressing or lpp-deleted bacteria; conditions: in words, cited from earlier work
[2] = system: E. coli CFT073 imp4213; experiment: Frequency of resistance (FOR); type: cell-based; conditions: 4× MIC, MHII agarose
Procedure: Frequencies of resistance (FORs) of G0790 were determined for E. coli CFT073, E. cloacae (ATCC 13047), and K. pneumoniae (ATCC 700603) as previously published ([70]). To determine the FOR, 3 to 4 colonies of the strain to be tested were picked from a fresh plate and diluted to an optical density at 600 nm (OD600) of 0.00001 in 1 ml of cation-adjusted MHBII. Ten independent 5-ml cultures in MHBII were prepared by inoculating 5 μl (approximately 1 × 10^3 CFU) and incubated at 37°C for 18 h. The bacteria were pelleted by centrifugation at 4000 × g at 4°C for 15 min and resuspended in 0.5 ml fresh MHBII. Two hundred fifty microliters of the bacterial suspension was plated evenly on MHII agarose plates containing globomycin or G0790 at a final concentration of 4× and 8× MIC. In parallel, CFU from each independent culture was measured by spotting 10-fold serial dilutions on MHII agar plates and incubated at 37°C for 18 h. Colonies were counted at days 1, 2, and 3 postinoculation. FOR was calculated as the ratio of the total number of resistant colonies relative to the total CFU plated. For strains that had no resistant colonies growing on plates, the p0 method was used to calculate the FOR (FOR = m/total CFU plated, where m = −ln p0 and p0 is the proportion of cultures with no mutants; 0.7 ≥ p0 ≥ 0.1), as described previously ([71]). Colonies were picked and resuspended in 30 μl MHBII broth medium, and 10 μl was plated on an MHII agar plate containing G0790 to be used to determine the MIC. Of the remaining 20 μl, half was used to inoculate 1.5 ml MHBII broth medium containing G0790 and grown at 37°C for 18 h to generate cell lysates for Western blot analysis, isolate genomic DNA (gDNA) for whole-genome sequencing, and for frozen glycerol stocks.

[3] = system: Lpp; conditions: in words; cited from earlier work
Description: We confirmed that the increase in potency against WT bacterial strains was specific to LspA by using multiple parallel approaches. […] Third, like GBM, G0790 is bactericidal, a ...

[4] = system: E. coli MG1655 ΔtolC; experiment: MIC; type: cell-based; conditions: E. coli MG1655 WT vs MG1655 ΔtolC
Procedure: MICs of compounds in each strain were determined in cation-adjusted Mueller-Hinton II (MHII) broth or MHII agar according to the Clinical and Laboratory Standards Institute protocol (CLSI 2006). To measure the effect of protein binding on activity, MIC assays were performed in the presence of 50% heat-inactivated human serum. The serum killing assay was performed as described previously ([43]). FOR assays and growth on plates containing G0790 were always performed on MHII agarose plates.

[5] = system: LspA; conditions: cited from earlier work; for LspA inhibition, mode: in words
Description: Bacterial lipoprotein biosynthesis is an attractive target for novel antibiotic drug discovery, as bacterial lipoproteins play critical roles in adhesion, nutrient uptake, antibiotic resistance, virulence, invasion, and immune evasion ([14]). Lipoprotein biosynthesis in Gram-negative bacteria is mediated by three essential inner membrane-localized enzymes ([14]), which work sequentially to generate the mature triacylated lipoproteins. The second enzyme in the pathway, prolipoprotein signal peptidase (LspA), is an aspartyl endopeptidase which cleaves off the signal peptide N-terminal to a conse ... || Our efforts to identify potent GBM analogs were driven by whole bacterial cell activity assays due to the low translatability of in vitro biochemical activity ([34], [35]).

[6] = system: wild-type (WT) Gram-negative bacteria; conditions: in words; cited from earlier work
Description: Therefore, with the goal of increasing GBM whole-cell potency through medicinal chemistry optimization, we identified G0790 as an analog with increased growth inhibitory activity against multiple Gram-negative bacterial species ([36]). G0790 contains (S)-2,3-diaminopropionic acid (Dap), cyclohexylglycine (Chg), and N-methyl ...

[7] = system: E. coli CFT073; experiment: Bactericidal activity, CFU over time; type: cell-based; conditions: G0790 at 2× MIC, two independent experiments in duplicates

Row | SMILES | Effect of plasmid-based lspA overexpression [1] | Effect of complete Lpp deletion ([1]; previous finding, ref as printed: none in abstract) | FOR (frequency of resistance) [2] | Accumulation of peptidoglycan-associated Lpp in the inner membrane [3] | WT/tolC MIC shift [4] | LspA inhibition, mode [5] | Ki ([5]; previously described by Dev et al.) | Growth inhibition of WT Gram-negative bacteria [6] | Bactericidal activity [7]
1 | CCCCCC[C@H]1OC(=O)CNC(=O)[C@H]([C@H](C)O)NC(=O)[C@H](CO)NC(=O)[C@H]([C@H](C)CC)NC(=O)[C@H](CC(C)C)N(C)C(=O)[C@@H]1C [GBM, globomycin] | confer resistance | leads to globomycin resistance | 1.4 × 10^−9 | accumulation of the peptidoglycan-associated form of Lpp in the inner membrane | ~128 fold | inhibit LspA function by targeting the catalytic dyad aspartic acid residues | 36 nM | weak growth inhibition | bactericidal
2 | CCCC1OC(=O)C(C)CC(C)CCCCC(=O)CCCC(CC)/C=C/C=C(\COC)CCC(O)C(O)CC(O)CNC1=O (centres unmarked) [myxovirescin] | confer resistance | – | – | – | – | inhibit LspA function by targeting the catalytic dyad aspartic acid residues | – | – | –
